T1: APLP1 E2 (Homo sapiens, UniProt P51693)
T1 construct: E2 domain, residues 290-495, secreted from Pichia pastoris (pPICZalpha), N-glycosylated fraction removed; dimeric arrangement in crystal
T1 sequence (P51693 290-495): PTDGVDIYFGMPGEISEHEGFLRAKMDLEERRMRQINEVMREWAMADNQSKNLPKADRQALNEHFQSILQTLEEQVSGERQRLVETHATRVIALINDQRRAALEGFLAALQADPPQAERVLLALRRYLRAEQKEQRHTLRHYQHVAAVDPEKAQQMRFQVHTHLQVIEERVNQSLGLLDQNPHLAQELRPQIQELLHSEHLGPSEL


Assays:
[1] = biological target: T1, APLP1 E2; assay: thermal denaturation (Thermofluor, SYPRO Orange); format: binding; details: 10 µM protein, 50 µM oligosaccharide, phosphate pH 5.7, 100 mM NaCl; reference Tm without ligand 43.6 ± 0.2 °C
[2] = biological target: T1, APLP1 E2; assay: X-ray co-crystal structure, […] Å; details: equimolar 0.5 mM; pH 6.1-6.3; two binding modes: chain a nonreducing end at dimer centre, chain b on one protomer
[3] = biological target: the molecule itself; assay: crystal structure; apo APLP1 E2, orthorhombic crystal form (P212121), 2.6 Å; crystals grown at 20°C in 0.1 M sodium citrate pH 5.6, 0.9 M (NH4)H2PO4, 25% glycerol; two molecules in the asymmetric unit

Row | Tm [1] | Molecule | X-ray co-crystal structure, 2.5 Å [2] | binding result [3]
1 | 53.5 ± 0.5 °C | O=C(O)C1=C[C@H](O)[C@@H](OS(=O)(=O)O)[C@H](O[C@H]2[C@H](O)[C@@H](NS(=O)(=O)O)[C@@H](O[C@H]3[C@H](O)[C@@H](OS(=O)(=O)O)[C@H](O[C@H]4[C@H](O)[C@@H](NS(=O)(=O)O)[C@@H](O[C@H]5[C@H](O)[C@@H](OS(=O)(=O)O)[C@H](O[C@H]6[C@H](O)[C@@H](NS(=O)(=O)O)[C@@H](O[C@H]7[C@H](O)[C@@H](OS(=O)(=O)O)[C@H](O[C@H]8[C@H](O)[C@@H](NS(=O)(=O)O)C(O)O[C@@H]8COS(=O)(=O)O)O[C@H]7C(=O)O)O[C@@H]6COS(=O)(=O)O)O[C@H]5C(=O)O)O[C@@H]4COS(=O)(=O)O)O[C@H]3C(=O)O)O[C@@H]2COS(=O)(=O)O)O1 (stereo partly drawn) [dp8, heparin octasaccharide] | – | –
2 | 55.6 ± 0.5 °C | O=C(O)C1=C[C@H](O)[C@@H](OS(=O)(=O)O)[C@H](O[C@H]2[C@H](O)[C@@H](NS(=O)(=O)O)[C@@H](O[C@H]3[C@H](O)[C@@H](OS(=O)(=O)O)[C@H](O[C@H]4[C@H](O)[C@@H](NS(=O)(=O)O)[C@@H](O[C@H]5[C@H](O)[C@@H](OS(=O)(=O)O)[C@H](O[C@H]6[C@H](O)[C@@H](NS(=O)(=O)O)[C@@H](O[C@H]7[C@H](O)[C@@H](OS(=O)(=O)O)[C@H](O[C@H]8[C@H](O)[C@@H](NS(=O)(=O)O)[C@@H](O[C@H]9[C@H](O)[C@@H](OS(=O)(=O)O)[C@H](O[C@H]%10[C@H](O)[C@@H](NS(=O)(=O)O)[C@@H](O[C@H]%11[C@H](O)[C@@H](OS(=O)(=O)O)[C@H](O[C@H]%12[C@H](O)[C@@H](NS(=O)(=O)O)C(O)O[C@@H]%12COS(=O)(=O)O)O[C@H]%11C(=O)O)O[C@@H]%10COS(=O)(=O)O)O[C@H]9C(=O)O)O[C@@H]8COS(=O)(=O)O)O[C@H]7C(=O)O)O[C@@H]6COS(=O)(=O)O)O[C@H]5C(=O)O)O[C@@H]4COS(=O)(=O)O)O[C@H]3C(=O)O)O[C@@H]2COS(=O)(=O)O)O1 (stereo partly drawn) [dp12, heparin dodecasaccharide] | coordinates of APLP1 E2 in complex with heparin | –

Continued, molecule first:

Row | Molecule | Tm [1] | X-ray co-crystal structure, 2.5 Å [2] | binding result [3]
3 | O=C(O)C1=C[C@H](O)[C@@H](OS(=O)(=O)O)[C@H](O[C@H]2[C@H](O)[C@@H](NS(=O)(=O)O)[C@@H](O[C@H]3[C@H](O)[C@@H](OS(=O)(=O)O)[C@H](O[C@H]4[C@H](O)[C@@H](NS(=O)(=O)O)C(O)O[C@@H]4COS(=O)(=O)O)O[C@H]3C(=O)O)O[C@@H]2COS(=O)(=O)O)O1 (stereo partly drawn) [dp4, heparin tetrasaccharide] | 46.9 ± 0.3 °C | – | –
4 | O=C(O)C1=C[C@H](O)[C@@H](OS(=O)(=O)O)[C@H](O[C@H]2[C@H](O)[C@@H](NS(=O)(=O)O)[C@@H](O[C@H]3[C@H](O)[C@@H](OS(=O)(=O)O)[C@H](O[C@H]4[C@H](O)[C@@H](NS(=O)(=O)O)[C@@H](O[C@H]5[C@H](O)[C@@H](OS(=O)(=O)O)[C@H](O[C@H]6[C@H](O)[C@@H](NS(=O)(=O)O)[C@@H](O[C@H]7[C@H](O)[C@@H](OS(=O)(=O)O)[C@H](O[C@H]8[C@H](O)[C@@H](NS(=O)(=O)O)[C@@H](O[C@H]9[C@H](O)[C@@H](OS(=O)(=O)O)[C@H](O[C@H]%10[C@H](O)[C@@H](NS(=O)(=O)O)[C@@H](O[C@H]%11[C@H](O)[C@@H](OS(=O)(=O)O)[C@H](O[C@H]%12[C@H](O)[C@@H](NS(=O)(=O)O)[C@@H](O[C@H]%13[C@H](O)[C@@H](OS(=O)(=O)O)[C@H](O[C@H]%14[C@H](O)[C@@H](NS(=O)(=O)O)[C@@H](O[C@H]%15[C@H](O)[C@@H](OS(=O)(=O)O)[C@H](O[C@H]%16[C@H](O)[C@@H](NS(=O)(=O)O)C(O)O[C@@H]%16COS(=O)(=O)O)O[C@H]%15C(=O)O)O[C@@H]%14COS(=O)(=O)O)O[C@H]%13C(=O)O)O[C@@H]%12COS(=O)(=O)O)O[C@H]%11C(=O)O)O[C@@H]%10COS(=O)(=O)O)O[C@H]9C(=O)O)O[C@@H]8COS(=O)(=O)O)O[C@H]7C(=O)O)O[C@@H]6COS(=O)(=O)O)O[C@H]5C(=O)O)O[C@@H]4COS(=O)(=O)O)O[C@H]3C(=O)O)O[C@@H]2COS(=O)(=O)O)O1 (stereo partly drawn) [dp16] | a slight stability increase of APLP1 was induced by chain lengths beyond eight sugar rings | – | –
5 | APLP1 E2 domain (amyloid precursor protein-like protein 1, E2 domain) (domain or fragment, human, UniProt P51693 290-495, looked up, E2 domain of human amyloid precursor protein-like protein 1 (APLP1), amino acids 290-495; Nonglycosylated fraction used; Two protomers in the asymmetric unit of both crystal forms; also called E2 domain of APLP1; apo APLP1 E2) PTDGVDIYFGMPGEISEHEGFLRAKMDLEERRMRQINEVMREWAMADNQSKNLPKADRQALNEHFQSILQTLEEQVSGERQRLVETHATRVIALINDQRRAALEGFLAALQADPPQAERVLLALRRYLRAEQKEQRHTLRHYQHVAAVDPEKAQQMRFQVHTHLQVIEERVNQSLGLLDQNPHLAQELRPQIQELLHSEHLGPSEL | – | – | binds
